From patent US20230265151A1, “GIP/GLP1 CO-AGONIST COMPOUNDS” (priority 2020, published 2023)
Where two headings read alike, the source gives them in different places.

How the values were obtained:
[1] = biological target: T1, human Gcg receptor (hGcgR) (Homo sapiens, UniProt P47871); assay: [125I]-Glucagon binding, SPA with membranes of HEK293 cells expressing hGcgR; conditions: human GcgR; geometric mean (SEM, n); read-out: Binding Affinity Ki, nM (SEM, n) hGCGR
T1 construct: expressed in transfected cells; crude membranes
T1 sequence (P47871 26-477): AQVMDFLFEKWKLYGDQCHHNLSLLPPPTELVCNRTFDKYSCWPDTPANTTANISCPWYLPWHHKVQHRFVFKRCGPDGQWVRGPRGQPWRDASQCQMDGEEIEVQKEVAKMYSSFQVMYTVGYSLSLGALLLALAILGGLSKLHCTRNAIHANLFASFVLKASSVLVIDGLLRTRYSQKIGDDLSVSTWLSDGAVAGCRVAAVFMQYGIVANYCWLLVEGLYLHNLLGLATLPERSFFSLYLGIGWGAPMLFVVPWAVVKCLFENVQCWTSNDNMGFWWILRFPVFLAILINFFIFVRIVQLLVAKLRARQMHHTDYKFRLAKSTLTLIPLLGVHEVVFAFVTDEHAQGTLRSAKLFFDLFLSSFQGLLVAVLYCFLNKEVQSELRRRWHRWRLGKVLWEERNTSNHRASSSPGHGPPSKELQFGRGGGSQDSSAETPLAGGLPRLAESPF
Protocol: Two methods are used for the preparation of crude cell membranes.
Method 1: Frozen cell pellets are lysed on ice in hypotonic buffer containing 50 mM Tris HCl, pH 7.5, and Roche Complete™ Protease Inhibitors with EDTA. […] The homogenate is centrifuged at 4° C. at 1100 × g for 10 minutes. The supernatant is collected and stored on ice while the pellets are resuspended in homogenization buffer and rehomogenized as described above. The homogenate is centrifuged at 1100 × g for 10 minutes. The second supernatant is combined with the first supernatant and centrifuged at 35000 × g for 1 hour at 4° C. The resulting membrane pellet is resuspended in homogenization buffer containing protease inhibitors at approximately 1 to 3 mg/mL, quick frozen in liquid nitrogen and stored as aliquots in a -80° C. freezer until use.
The homogenate is centrifuged at 4° C. at 1800 × g for 15 minutes. The supernatant is collected and stored on ice while the pellets are resuspended in homogenization buffer (without DNAse I) and rehomogenized as described above. The homogenate is centrifuged at 1800 × g for 15 minutes. The second supernatant is combined with the first supernatant and centrifuged an additional time at 1800 × g for 15 minutes. The overall supernatant is then centrifuged at 25000 × g for 30 minutes at 4° C. The resulting membrane pellet is resuspended in homogenization buffer (without DNAse I) containing protease inhibitors at approximately 1 to 3 mg/mL and stored as aliquots in a -80° C. freezer until use.
The human Gcg receptor binding assays are performed using a Scintillation Proximity Assay (SPA) format with wheat germ agglutinin (WGA) beads (Perkin Elmer). The binding buffer contains 25 mM 4-(2-hydroxyethyl)-1-piperazineethanesulfonic acid (HEPES), pH 7.4, 2.5 mM CaCl2, 1 mM MgCh, 0.1% (w/v) bacitracin (Research Products), 0.003% (w/v) Polyoxyethylenesorbitan monolaurate (TWEEN®-20), and Roche Complete™ Protease Inhibitors without EDTA. […] Next, 5 µL serially diluted compound or DMSO is transferred into Corning® 3632 clear bottom assay plates containing 45 µL assay binding buffer or unlabeled Gcg control (non-specific binding or NSB, at 1 µM final). […] Plates are sealed and mixed on a plate shaker (setting 6) for 1 minute and read with a PerkinElmer Trilux MicroBeta® scintillation counter after 12 hours of incubation/settling time at room temperature.
Raw CPM data for concentration curves of peptides, Gcg, GLP-1, or GIP are converted to percent inhibition by subtracting nonspecific binding (binding in the presence of excess unlabeled Gcg, GLP-1, or GIP, respectively) from the individual CPM values and dividing by the total binding signal, also corrected by subtracting nonspecific binding. Data are analyzed using four-parameter (curve maximum, curve minimum, IC50, Hill slope) nonlinear regression routines (Genedata Screener, version 12.0.4, Genedata AG, Basal, Switzerland). […] Values for Ki are reported as the geometric mean, with error expressed as the standard error of the mean (SEM) and n is equal to the number of independent replicates (determined in assays performed on different days). Geometric Means are calculated as follows: […]
The Ki Ratio (Ki for native control peptide/Ki for test compound) at each receptor and each species is calculated. The Ki Ratio is a rapid indication of the apparent affinity of a peptide compared to the native control peptide.
n=⅟x means that only one value out of the total number of replicates (x) is used to express the mean. SEM is only calculated when n=2 or greater non-qualified results exist. Means are expressed as GeoMetric means with the standard error of the mean (SEM) and the number of replicates (n) indicated in parenthesis.

hGIPR = biological target: T2, hGIPR (Homo sapiens, UniProt P48546); assay: Functional cAMP formation (HTRF) in HEK-293 clonal cells expressing hGIPR, 0.1% bovine casein, without or with 1.0% human serum albumin; format: cell-based; conditions: for EC50: geometric mean, read-out: hGIPR EC50, nM (SEM, n); for Emax: read-out: hGIPR Emax, % ± SEM
T2 construct: expressed in transfected cells
T2 sequence (P48546 22-466): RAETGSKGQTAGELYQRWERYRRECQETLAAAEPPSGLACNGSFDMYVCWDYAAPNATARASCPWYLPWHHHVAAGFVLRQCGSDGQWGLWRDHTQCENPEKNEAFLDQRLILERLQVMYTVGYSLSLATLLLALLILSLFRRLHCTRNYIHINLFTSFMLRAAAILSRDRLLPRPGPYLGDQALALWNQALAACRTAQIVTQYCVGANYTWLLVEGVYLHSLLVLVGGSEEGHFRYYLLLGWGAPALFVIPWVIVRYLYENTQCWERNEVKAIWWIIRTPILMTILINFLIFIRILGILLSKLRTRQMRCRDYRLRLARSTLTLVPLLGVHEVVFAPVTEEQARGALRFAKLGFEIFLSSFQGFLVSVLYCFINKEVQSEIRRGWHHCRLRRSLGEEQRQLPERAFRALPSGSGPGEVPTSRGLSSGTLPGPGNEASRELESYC
Procedure, shortened: (§1)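 Readings of the HTRF 665/620 nm ratio, which falls as cAMP rises, were converted to nM cAMP using a standard curve after 30 min peptide exposure at 37° C.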

hGCGR = biological target: T3, hGCGR (Homo sapiens, UniProt P47871); assay: Functional cAMP formation (HTRF) in HEK-293 clonal cells expressing hGCGR, 0.1% bovine casein, without or with 1.0% human serum albumin; format: cell-based; conditions: geometric mean, read-out: hGCGR EC50, nM (SEM, n)
T3 construct: expressed in transfected cells
T3 sequence (P47871 26-477): as the sequence (P47871 26-477) above
Procedure, shortened: as §1

hGLP-1R = hGLP-1R (Homo sapiens, UniProt P43220); assay: Functional cAMP formation (HTRF) in HEK-293 clonal cells expressing hGLP-1R, 0.1% bovine casein, without or with 1.0% human serum albumin; format: cell-based; set-up: expressed in transfected cells; conditions: geometric mean, read-out: hGLP-1R EC50, nM (SEM, n)
Sequence of hGLP-1R (P43220 24-463): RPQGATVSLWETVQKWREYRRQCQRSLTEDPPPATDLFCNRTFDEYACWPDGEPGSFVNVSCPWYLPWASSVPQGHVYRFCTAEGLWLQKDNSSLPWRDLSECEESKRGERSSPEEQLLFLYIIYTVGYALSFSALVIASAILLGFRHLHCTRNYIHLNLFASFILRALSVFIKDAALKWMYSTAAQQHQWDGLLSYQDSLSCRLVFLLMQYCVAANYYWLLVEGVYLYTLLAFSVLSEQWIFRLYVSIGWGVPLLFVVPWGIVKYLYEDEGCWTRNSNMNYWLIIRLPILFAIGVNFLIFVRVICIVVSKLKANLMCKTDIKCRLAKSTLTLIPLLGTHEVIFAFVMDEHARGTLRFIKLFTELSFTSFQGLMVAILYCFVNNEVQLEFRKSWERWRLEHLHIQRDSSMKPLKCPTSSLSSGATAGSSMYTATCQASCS
Procedure, shortened: as §1

[2] = 0.1% bovine casein and 1.0% human serum albumin, 37° C.
[3] = HEK293, 0.1% bovine casein and 1.0% human serum albumin, 37° C., percent of maximal response to GIP(1-42)NH2
[4] = HEK293, percent of maximal response to GIP(1-42)NH2, 37° C., 0.1% bovine casein, arithmetic mean
[5] = cAMP, incubated at 37° C., 0.1% bovine casein (no human serum albumin)

| SMILES | Ki [1] [nM] | EC50 (hGIPR; [2]) [nM] | Emax (hGIPR; [3]) [%] | Emax (hGIPR; [4]) [%] | EC50 (hGIPR; [5]) [nM] | EC50 (hGCGR; [2]) [nM] | EC50 (hGCGR; [5]) [nM] | EC50 (hGLP-1R; [2]) [nM] | EC50 (hGLP-1R; [5]) [nM] |
| --- | --- | --- | --- | --- | --- | --- | --- | --- | --- |
| CC[C@H](C)[C@H](NC(=O)[C@H](CC(C)C)NC(=O)[C@](C)(Cc1ccc(O)cc1)NC(=O)[C@@H](CCC(=O)O)NC(=O)[C@@H](NC(=O)[C@H](Cc1ccccc1)NC(=O)[C@H](CCC(=O)O)NC(=O)C(C)(C)NC(=O)[C@H](CCC(N)=O)NC(=O)[C@H](C)NC(=O)[C@H](CCCCNC(=O)COCCOCCNC(=O)COCCOCCNC(=O)CC[C@H](NC(=O)CCCCCCCCCCCCC(=O)O)C(=O)O)NC(=O)[C@H](CCCN)NC(=O)[C@H](CC(=O)O)NC(=O)[C@H](CC(C)C)NC(=O)[C@](C)(CC(C)C)NC(=O)[C@@H](NC(=O)[C@H](CO)NC(=O)[C@H](Cc1ccncc1)NC(=O)[C@H](CC(=O)O)NC(=O)[C@H](CO)NC(=O)[C@@H](NC(=O)[C@](C)(Cc1ccccc1F)NC(=O)[C@@H](NC(=O)CNC(=O)[C@H](CCC(=O)O)NC(=O)C(C)(C)NC(=O)[C@@H](N)Cc1ccc(O)cc1)[C@@H](C)O)[C@@H](C)O)[C@@H](C)CC)[C@@H](C)CC)C(=O)N[C@@H](CCC(=O)O)C(=O)NCC(=O)N[C@@H](CCCCNC(=O)COCCOCCNC(=O)COCCOCCNC(=O)CC[C@H](NC(=O)CCCCCCCCCCCCC(=O)O)C(=O)O)C(=O)N1CCC[C@H]1C(=O)N[C@@H](CO)C(=O)N[C@@H](CO)C(=O)NCC(=O)N[C@@H](C)C(=O)N1CCC[C@H]1C(=O)N1CCC[C@H]1C(=O)N1CCC[C@H]1C(=O)N[C@@H](CO)C(N)=O [Example 18] | > 958 | 1.12 | 86.9 ± 3.59 | 97.1 ± 3.28 | 0.0226 | > 9950 | > 9950 | 164 |  |
| CC[C@H](C)[C@H](NC(=O)[C@H](CC(C)C)NC(=O)[C@](C)(Cc1ccc(O)cc1)NC(=O)[C@@H](CCC(=O)O)NC(=O)[C@@H](NC(=O)[C@H](Cc1ccccc1)NC(=O)[C@H](CCC(=O)O)NC(=O)C(C)(C)NC(=O)[C@H](CCC(N)=O)NC(=O)[C@H](C)NC(=O)[C@H](CCCCNC(=O)COCCOCCNC(=O)COCCOCCNC(=O)CC[C@H](NC(=O)CCCCCCCCCCCCC(=O)O)C(=O)O)NC(=O)[C@H](CCCN)NC(=O)[C@H](CC(=O)O)NC(=O)[C@H](CC(C)C)NC(=O)[C@](C)(CC(C)C)NC(=O)[C@@H](NC(=O)[C@H](CO)NC(=O)[C@H](Cc1ccncc1)NC(=O)[C@H](CC(=O)O)NC(=O)[C@H](CO)NC(=O)[C@@H](NC(=O)[C@](C)(Cc1ccccc1F)NC(=O)[C@@H](NC(=O)CNC(=O)[C@H](CCC(=O)O)NC(=O)C(C)(C)NC(=O)[C@@H](N)Cc1ccc(O)cc1)[C@@H](C)O)[C@@H](C)O)[C@@H](C)CC)[C@@H](C)CC)C(=O)N[C@@H](CCC(=O)O)C(=O)NCC(=O)NCC(=O)N1CCC[C@H]1C(=O)N[C@@H](CO)C(=O)N[C@@H](CO)C(=O)NCC(=O)N[C@@H](C)C(=O)N1CCC[C@H]1C(=O)N1CCC[C@H]1C(=O)N1CCC[C@H]1C(=O)N[C@@H](CO)C(=O)N[C@@H](CCCCNC(=O)COCCOCCNC(=O)COCCOCCNC(=O)CC[C@H](NC(=O)CCCCCCCCCCCCC(=O)O)C(=O)O)C(N)=O [Example 19] | > 966 | 0.438 | 89.7 ± 2.13 | 96.6 ± 2.7 | 0.0158 | > 9950 | > 9950 | 24.4 | 1.34 |
| CC[C@H](C)[C@H](NC(=O)[C@H](CCCN)NC(=O)[C@H](CC(=O)O)NC(=O)[C@H](CC(C)C)NC(=O)[C@](C)(CC(C)C)NC(=O)[C@@H](NC(=O)[C@H](CO)NC(=O)[C@H](Cc1ccncc1)NC(=O)[C@H](CC(=O)O)NC(=O)[C@H](CO)NC(=O)[C@@H](NC(=O)[C@](C)(Cc1ccccc1F)NC(=O)[C@@H](NC(=O)CNC(=O)[C@H](CCC(=O)O)NC(=O)C(C)(C)NC(=O)[C@@H](N)Cc1ccc(O)cc1)[C@@H](C)O)[C@@H](C)O)[C@@H](C)CC)C(=O)N[C@@H](C)C(=O)N[C@@H](CCC(N)=O)C(=O)NC(C)(C)C(=O)N[C@@H](CCC(=O)O)C(=O)N[C@@H](Cc1ccccc1)C(=O)N[C@H](C(=O)N[C@H](CCC(=O)O)C(=O)N[C@@](C)(Cc1ccc(O)cc1)C(=O)N[C@@H](CC(C)C)C(=O)N[C@H](C(=O)N[C@@H](CCCCNC(=O)COCCOCCNC(=O)COCCOCCNC(=O)CC[C@H](NC(=O)CCCCCCCCCCCCC(=O)O)C(=O)O)C(=O)NCC(=O)NCC(=O)N[C@@H](CCCCNC(=O)COCCOCCNC(=O)COCCOCCNC(=O)CC[C@H](NC(=O)CCCCCCCCCCCCC(=O)O)C(=O)O)C(=O)N[C@@H](CO)C(=O)N[C@@H](CO)C(=O)NCC(=O)N[C@@H](C)C(=O)N1CCC[C@H]1C(=O)N1CCC[C@H]1C(=O)N1CCC[C@H]1C(=O)N[C@@H](CO)C(N)=O)[C@@H](C)CC)[C@@H](C)CC [Example 20] | 139 | 1.66 | 90.6 ± 0.878 | 98.8 ± 3.19 |  | > 9950 | > 9950 | 62.4 |  |
